# Assay results: ChEMBL document CHEMBL3046635, “Synthesis and Herbicidal Activity of New Pyrazole-4-carboxamide Derivatives” (J Pestic Sci, 2004)
# Active and inactive are the calls of the source.
# Assays:
# Cyperus difformis [1] = assay: Pre-emergence herbicidal activity against Cyperus difformis assessed as bleaching of stem/leaf parts; format: functional, organism-based
# Ammannia multiflora [2] = assay: Pre-emergence herbicidal activity against Ammannia multiflora at 500 g a.i/ha measured after 14 days; format: functional, organism-based
# Echinochloa oryzicola [3] = assay: Post-emergence herbicidal activity against Echinochloa oryzicola assessed as bleaching of stem/leaf parts; format: functional, organism-based; also: test concentration or dose not given here
# [4] = test system: Schoenoplectiella juncoides; assay: Pre-emergence herbicidal activity against Schoenoplectiella juncoides at 500 g a.i/ha measured after 14 days; format: functional, organism-based
# Cyperus difformis [5] = assay: Pre-emergence herbicidal activity against Cyperus difformis at 500 g a.i/ha measured after 14 days; format: functional, organism-based
# [6] = test system: Schoenoplectiella juncoides; assay: Pre-emergence herbicidal activity against Schoenoplectiella juncoides assessed as bleaching of stem/leaf parts; format: functional, organism-based
# Eleocharis acicularis [7] = assay: Pre-emergence herbicidal activity against Eleocharis acicularis at 500 g a.i/ha measured after 14 days; format: functional, organism-based
# Rotala indica [8] = assay: Pre-emergence herbicidal activity against Rotala indica assessed as bleaching of stem/leaf parts; format: functional, organism-based
# Oryza sativa = assay: Phytotoxicity against Oryza sativa cv. Koshihikari (rice) at 500 g a.i/ha measured after 14 days; format: organism-based; settings: in vivo, 336 h
# Ammannia multiflora [9] = assay: Pre-emergence herbicidal activity against Ammannia multiflora assessed as bleaching of stem/leaf parts; format: functional, organism-based
# Echinochloa oryzicola [10] = assay: Pre-emergence herbicidal activity against Echinochloa oryzicola at 500 g a.i/ha measured after 14 days; format: functional, organism-based
# Lindernia procumbens [11] = assay: Pre-emergence herbicidal activity against Lindernia procumbens at 500 g a.i/ha measured after 14 days; format: functional, organism-based
# Elatine triandra [12] = assay: Pre-emergence herbicidal activity against Elatine triandra assessed as bleaching of stem/leaf parts; format: functional, organism-based
# Rotala indica [13] = assay: Post-emergence herbicidal activity against Rotala indica assessed as bleaching of stem/leaf parts; format: functional, organism-based; also: test concentration or dose not given here
# Elatine triandra [14] = assay: Post-emergence herbicidal activity against Elatine triandra assessed as bleaching of stem/leaf parts; format: functional, organism-based; also: test concentration or dose not given here
# Cyperus difformis [15] = assay: Post-emergence herbicidal activity against Cyperus difformis assessed as bleaching of stem/leaf parts; format: functional, organism-based; also: test concentration or dose not given here
# Lindernia procumbens [16] = assay: Pre-emergence herbicidal activity against Lindernia procumbens assessed as bleaching of stem/leaf parts; format: functional, organism-based
# Echinochloa oryzicola [17] = assay: Pre-emergence herbicidal activity against Echinochloa oryzicola assessed as bleaching of stem/leaf parts; format: functional, organism-based
# Rotala indica [18] = assay: Pre-emergence herbicidal activity against Rotala indica at 500 g a.i/ha measured after 14 days; format: functional, organism-based
# Ammannia multiflora [19] = assay: Post-emergence herbicidal activity against Ammannia multiflora assessed as bleaching of stem/leaf parts; format: functional, organism-based; also: test concentration or dose not given here
# Eleocharis acicularis [20] = assay: Pre-emergence herbicidal activity against Eleocharis acicularis assessed as bleaching of stem/leaf parts; format: functional, organism-based
# Pontederia vaginalis [21] = assay: Pre-emergence herbicidal activity against Monochoria vaginalis at 500 g a.i/ha measured after 14 days; format: functional, organism-based
# Pontederia vaginalis [22] = assay: Pre-emergence herbicidal activity against Monochoria vaginalis assessed as bleaching of stem/leaf parts; format: functional, organism-based
# Eleocharis acicularis [23] = assay: Post-emergence herbicidal activity against Eleocharis acicularis assessed as bleaching of stem/leaf parts; format: functional, organism-based; also: test concentration or dose not given here
# Elatine triandra [24] = assay: Pre-emergence herbicidal activity against Elatine triandra at 500 g a.i/ha measured after 14 days; format: functional, organism-based
# Lindernia procumbens [25] = assay: Post-emergence herbicidal activity against Lindernia procumbens assessed as bleaching of stem/leaf parts; format: functional, organism-based; also: test concentration or dose not given here
# Pontederia vaginalis [26] = assay: Post-emergence herbicidal activity against Monochoria vaginalis assessed as bleaching of stem/leaf parts; format: functional, organism-based; also: test concentration or dose not given here
# [27] = test system: Schoenoplectiella juncoides; assay: Post-emergence herbicidal activity against Schoenoplectiella juncoides assessed as bleaching of stem/leaf parts; format: functional, organism-based; also: test concentration or dose not given here
Compound,Activity (Cyperus difformis [1]),Activity (Ammannia multiflora [2]),Activity (Echinochloa oryzicola [3]),Activity [4],Activity (Cyperus difformis [5]),Activity [6],Activity (Rotala indica [8]),Activity (Oryza sativa),Activity (Ammannia multiflora [9]),Activity (Echinochloa oryzicola [10]),Activity (Lindernia procumbens [11]),Activity (Elatine triandra [12]),Activity (Rotala indica [13]),Activity (Elatine triandra [14]),Activity (Cyperus difformis [15]),Activity (Lindernia procumbens [16]),Activity (Echinochloa oryzicola [17]),Activity (Rotala indica [18]),Activity (Ammannia multiflora [19]),Activity (Eleocharis acicularis [20]),further results
Cn1cc(C(=O)Nc2ccc(C(C)(C)C)cc2)c(OCc2cccc(C(F)(F)F)c2)n1,Active,inactive,Active,inactive,inactive,Active,Active,Non-toxic,Active,inactive,inactive,Active,Active,Active,Active,Active,Active,inactive,Active,Active,Activity (Eleocharis acicularis [7]): inactive; Activity (Pontederia vaginalis [21]): inactive; Activity (Pontederia vaginalis [22]): Active; Activity (Eleocharis acicularis [23]): Active; Activity (Elatine triandra [24]): inactive; Activity (Lindernia procumbens [25]): Active; Activity (Pontederia vaginalis [26]): Active; Activity [27]: Active
Cn1cc(C(=O)Nc2ccc(C#N)cc2)c(OCc2cccc(C(F)(F)F)c2)n1,Active,Active,Active,inactive,inactive,Active,Active,Non-toxic,Active,inactive,Active,Active,Active,Active,Active,Active,Active,Active,Active,Active,Activity (Eleocharis acicularis [7]): inactive; Activity (Pontederia vaginalis [21]): inactive; Activity (Pontederia vaginalis [22]): Active; Activity (Eleocharis acicularis [23]): Active; Activity (Elatine triandra [24]): Active; Activity (Lindernia procumbens [25]): Active; Activity (Pontederia vaginalis [26]): Active; Activity [27]: Active
CCN(C(=O)c1cn(C)nc1OCc1cccc(C(F)(F)F)c1)C1CCCCC1,Active,inactive,Active,inactive,inactive,Active,Active,Non-toxic,Active,inactive,inactive,Active,Active,Active,Active,Active,Active,inactive,Active,Active,Activity (Eleocharis acicularis [7]): inactive; Activity (Pontederia vaginalis [21]): inactive; Activity (Pontederia vaginalis [22]): Active; Activity (Eleocharis acicularis [23]): Active; Activity (Elatine triandra [24]): inactive; Activity (Lindernia procumbens [25]): Active; Activity (Pontederia vaginalis [26]): Active; Activity [27]: Active
Cn1cc(C(=O)Nc2ccc(S(C)(=O)=O)cc2)c(OCc2cccc(C(F)(F)F)c2)n1,Active,inactive,Active,inactive,inactive,Active,Active,Non-toxic,Active,inactive,inactive,Active,Active,Active,Active,Active,Active,inactive,Active,Active,Activity (Pontederia vaginalis [21]): inactive; Activity (Pontederia vaginalis [22]): Active; Activity (Eleocharis acicularis [23]): Active; Activity (Elatine triandra [24]): inactive; Activity (Lindernia procumbens [25]): Active; Activity (Pontederia vaginalis [26]): Active; Activity [27]: Active
CCONC(=O)c1cn(C(C)(C)C)nc1OCc1cccc(C(F)(F)F)c1,Active,inactive,Active,inactive,inactive,Active,Active,Non-toxic,Active,inactive,inactive,Active,Active,Active,Active,Active,Active,inactive,Active,Active,Activity (Eleocharis acicularis [7]): inactive; Activity (Pontederia vaginalis [21]): inactive; Activity (Pontederia vaginalis [22]): Active; Activity (Eleocharis acicularis [23]): Active; Activity (Elatine triandra [24]): inactive; Activity (Lindernia procumbens [25]): Active; Activity (Pontederia vaginalis [26]): Active; Activity [27]: Active
Cn1cc(C(=O)N2CCCC2)c(OCc2cccc(C(F)(F)F)c2)n1,Active,inactive,Active,inactive,inactive,Active,Active,Non-toxic,Active,inactive,inactive,Active,Active,Active,Active,Active,Active,inactive,Active,Active,Activity (Eleocharis acicularis [7]): inactive; Activity (Pontederia vaginalis [21]): inactive; Activity (Pontederia vaginalis [22]): Active; Activity (Eleocharis acicularis [23]): Active; Activity (Elatine triandra [24]): inactive; Activity (Lindernia procumbens [25]): Active; Activity (Pontederia vaginalis [26]): Active; Activity [27]: Active
Cn1cc(C(=O)Nc2cccc(Cl)c2)c(OCc2cccc(C(F)(F)F)c2)n1,Active,Active,Active,Active,inactive,Active,Active,Non-toxic,Active,inactive,Active,Active,Active,Active,Active,Active,Active,Active,Active,Active,Activity (Pontederia vaginalis [21]): inactive; Activity (Pontederia vaginalis [22]): Active; Activity (Eleocharis acicularis [23]): Active; Activity (Elatine triandra [24]): Active; Activity (Lindernia procumbens [25]): Active; Activity (Pontederia vaginalis [26]): Active; Activity [27]: Active
